Experimental data as given in US12252488B2 (Nimbus Saturn, Inc., priority 2021, dated 2025).
pIC50: −log10 of the molar value.

target: T1, HPK1 (Homo sapiens, UniProt Q92918); test: HPK1 biochemical enzyme assay (microfluidic mobility shift assay); conditions: 1000 uM (1 mM) ATP; Caliper mobility shift; 1.5 nM HPK1; 30 min preincubation; read-out: HPK1 1000UMATP caliper IC50
T1 construct: purchased Invitrogen
Method in brief: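 IC50 values, grouped into activity categories, come from 10-point titrations (top final 3 μM) preincubated 30 min with 1.5 nM enzyme and substrate at pH 7.4. ATP (1 mM), substrate (1 μM) and MgCl2 (5 mM) then added; after 60 min at RT, product separated by microfluidic mobility shift.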

T1 sequence (Q92918 whole entry): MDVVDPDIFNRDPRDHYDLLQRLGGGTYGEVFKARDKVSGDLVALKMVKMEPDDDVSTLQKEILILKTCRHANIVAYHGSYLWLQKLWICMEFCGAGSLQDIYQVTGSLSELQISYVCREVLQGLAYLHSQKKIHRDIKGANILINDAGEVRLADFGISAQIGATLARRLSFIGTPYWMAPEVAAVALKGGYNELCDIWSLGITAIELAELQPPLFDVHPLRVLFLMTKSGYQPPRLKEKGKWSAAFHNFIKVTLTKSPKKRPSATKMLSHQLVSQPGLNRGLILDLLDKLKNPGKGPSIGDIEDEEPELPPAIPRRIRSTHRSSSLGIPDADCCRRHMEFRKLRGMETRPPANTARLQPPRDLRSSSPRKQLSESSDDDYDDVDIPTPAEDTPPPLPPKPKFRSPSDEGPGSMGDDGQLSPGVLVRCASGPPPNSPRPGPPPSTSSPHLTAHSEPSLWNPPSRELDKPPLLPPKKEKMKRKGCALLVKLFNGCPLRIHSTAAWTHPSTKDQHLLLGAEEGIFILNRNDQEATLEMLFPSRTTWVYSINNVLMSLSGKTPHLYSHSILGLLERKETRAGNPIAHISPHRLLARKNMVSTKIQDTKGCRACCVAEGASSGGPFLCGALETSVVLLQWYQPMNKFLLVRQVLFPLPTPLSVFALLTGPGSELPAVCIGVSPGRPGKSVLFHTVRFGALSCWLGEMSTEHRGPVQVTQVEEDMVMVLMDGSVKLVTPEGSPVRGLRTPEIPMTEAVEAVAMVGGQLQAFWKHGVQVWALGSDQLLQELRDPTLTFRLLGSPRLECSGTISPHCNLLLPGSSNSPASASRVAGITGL

`Cc1cc(F)c(-c2cc(Nc3ccc(N4CCC(O)CC4)cn3)c3c(=O)[nH]ccc3n2)cc1C` [I-86, 2-(2-fluoro-4,5-dimethyl-phenyl)-4-[[5-(4-hydroxy-1-piperidyl)-2-pyridyl]amino]-6H-1,6-naphthyridin-5-one] was tested. Which pIC50 did it give?
The pIC50 was 6.00 to 7.00.

`COCCOC1CN(c2ccc(Nc3cc(-c4cc(OC)c(C(=O)N5CCCCC5)cc4F)nc4cc[nH]c(=O)c34)nc2)C1` [I-188, 2-[2-fluoro-5-methoxy-4-(piperidine-1-carbonyl)phenyl]-4-[[5-[3-(2-methoxy-ethoxy)azetidin-1-yl]-2-pyridyl]amino]-6H-1,6-naphthyridin-5-one] was tested. Which pIC50 did it give?
The pIC50 was ≥ 7.00.

`N#CCc1ccc(F)c(-c2cc(Nc3ccc(N4CCC(O)CC4)cn3)c3c(=O)[nH]ccc3n2)c1` [I-98, 2-[4-fluoro-3-[4-[[5-(4-hydroxy-1-piperidyl)-2-pyridyl]amino]-5-oxo-6H-1,6-naphthyridin-2-yl]phenyl] acetonitrile] was tested. Which pIC50 did it give?
The pIC50 was ≥ 7.00.

`O=C(c1cc(F)c(-c2cc(Nc3ccc(N4CCC(O)CC4)cn3)c3c(=O)[nH]ccc3n2)cc1F)N1CCCCC1` [I-231, 2-[2,5-difluoro-4-(piperidine-1-carbonyl)phenyl]-4-[[5-(4-hydroxy-1-piperidyl)-2-pyridyl]amino]-6H-1,6-naphthyridin-5-one] was tested. Which pIC50 did it give?
The pIC50 was 6.00 to 7.00.

How did the pIC50 turn out when `CNC1CCc2cc(F)c(-c3cc(Nc4ccc(N5CCC(O)CC5)cn4)c4c(=O)[nH]ccc4n3)cc21` (centres unmarked) [I-200, 2-[6-fluoro-3-(methyl-amino)indan-5-yl]-4-[[5-(4-hydroxy-1-piperidyl)-2-pyridyl]amino]-6H-1,6-naphthyridin-5-one] was run?
Its pIC50 is ≥ 7.00.

With `O=c1[nH]ccc2nc(-c3cc(CN4CCCC4)ccc3F)cc(Nc3ccc(N4CCC(O)CC4)cn3)c12` [I-177, 2-[2-fluoro-5-(pyrrolidin-1-ylmethyl)phenyl]-4-[[5-(4-hydroxy-1-piperidyl)-2-pyridyl]amino]-6H-1,6-naphthyridin-5-one] as the compound, how does the pIC50 read?
The pIC50 was ≥ 7.00.

How did the pIC50 turn out when `CN1CCN(c2ccc(Nc3cc(-c4cnc5c(c4)CC(=O)N5)nc4cc[nH]c(=O)c34)nc2)CC1` [I-227, 4-[[5-(4-methyl-piperazin-1-yl)-2-pyridyl]amino]-2-(2-oxo-1,3-dihydro-pyrrolo[2,3-b]pyridin-5-yl)-6H-1,6-naphthyridin-5-one] was run?
The pIC50 was ≥ 7.00.

How did the pIC50 turn out when `COC(=O)c1ccc(-c2cc(Nc3ccc(N4CCC(O)CC4)cn3)c3c(=O)[nH]ccc3n2)c(F)c1` [I-125, Methyl 3-fluoro-4-[4-[[5-(4-hydroxy-1-piperidyl)-2-pyridyl]amino]-5-oxo-6H-1,6-naphthyridin-2-yl]benzoate] was run?
Its pIC50 is ≥ 7.00.

How did the pIC50 turn out when `CN(C)C1CCc2cc(-c3cc(Nc4ccc(N5CCC(O)CC5)cn4)c4c(=O)[nH]ccc4n3)c(F)cc21` (centres unmarked) [I-238, 2-[1-(dimethyl-amino)-6-fluoro-indan-5-yl]-4-[[5-(4-hydroxy-1-piperidyl)-2-pyridyl]amino]-6H-1,6-naphthyridin-5-one] was run?
Its pIC50 is 6.00 to 7.00.

`O=c1[nH]ccc2nc(-c3cc4c(cc3F)C(N3CCOCC3)CC4)cc(Nc3ccc(N4CCC(O)CC4)cn3)c12` (centres unmarked) [I-259, 2-(6-fluoro-1-morphoino-indan-5-y)-4-[[5-(4-hydroxy-1-piperidy)-2-pyridy]amino]-6H-1,6-naphthyridin-5-one] was tested. Which pIC50 did it give?
Its pIC50 is ≥ 7.00.

`CCNC(=O)c1ccc(Nc2cc(-c3c(F)cccc3F)nc3cc[nH]c(=O)c23)cc1` [I-4, 4-[[2-(2,6-difluoro-phenyl)-5-oxo-6H-1,6-naphthyridin-4-yl]amino]-N-ethyl-benzamide] was tested. Which pIC50 did it give?
Its pIC50 is ≥ 7.00.

How did the pIC50 turn out when `CC(=O)c1cc(Nc2ccc(N3CCC(O)CC3)cn2)c2c(=O)[nH]ccc2n1` [I-47, 2-acetyl-4-[[5-(4-hydroxy-1-piperidyl)-2-pyridyl]amino]-6H-1,6-naphthyridin-5-one] was run?
The pIC50 was ≥ 7.00.

With `O=c1[nH]ccc2nc(-c3cc(C4COC4)ccc3F)cc(Nc3ccc(N4CCC(O)CC4)cn3)c12` [I-103, 2-[2-fluoro-5-(oxetan-3-yl)phenyl]-4-[[5-(4-hydroxy-1-piperidyl)-2-pyridyl]amino]-6H-1,6-naphthyridin-5-one] as the compound, how does the pIC50 read?
The pIC50 was ≥ 7.00.

How did the pIC50 turn out when `O=C(O)c1c[nH]c(=O)c2c(Nc3ccc(N4CCC(O)CC4)cn3)cc(-c3c(F)cccc3F)nc12` [I-39, 2-(2,6-difluorophenyl)-4-[[5-(4-hydroxy-1-piperidyl)-2-pyridyl]amino]-5-oxo-6H-1,6-naphthyridine-8-carboxylic Acid] was run?
Its pIC50 is < 6.00.

With `CCN(C)C(=O)C(C)(C)c1ccc(Nc2cc(-c3c(F)cccc3F)nc3cc[nH]c(=O)c23)nc1` [I-52, 2-[6-[[2-(2,6-difluoro-phenyl)-5-oxo-6H-1,6-naphthyridin-4-yl]amino]-3-pyridyl]-N-ethyl-N,2-dimethyl-propanamide] as the compound, how does the pIC50 read?
Its pIC50 is 6.00 to 7.00.

`O=C(Nc1ccc(-c2cc(Nc3ccc(N4CC(F)(F)C4)cn3)c3c(=O)[nH]ccc3n2)c(F)c1)C1CCCCC1` [I-201, N-[4-[4-[[5-(3,3-difluoro-azetidin-1-yl)-2-pyridyl]amino]-5-oxo-6H-1,6-naphthyridin-2-yl]-3-fluoro-phenyl] cyclohexane-carboxamide] was tested. Which pIC50 did it give?
Its pIC50 is ≥ 7.00.

`Cc1nc2cc(-c3cc(Nc4ccc(N5CCNCC5)cn4)c4c(=O)[nH]ccc4n3)c(F)cc2o1` [I-178, 2-(6-fluoro-2-methyl-1,3-benzoxazol-5-yl)-4-[(5-piperazin-1-yl-2-pyridyl)amino]-6H-1,6-naphthyridin-5-one] was tested. Which pIC50 did it give?
Its pIC50 is 6.00 to 7.00.

How did the pIC50 turn out when `COc1cc(-c2cc(Nc3ccc(N4CCC(O)CC4)cn3)c3c(=O)[nH]cc(C)c3n2)c(F)cc1C(=O)N1CCCCC1` [I-163, 2-[2-fluoro-5-methoxy-4-(piperidine-1-carbonyl)phenyl]-4-[[5-(4-hydroxy-1-piperidyl)-2-pyridyl]amino]-8-methyl-6H-1,6-naphthyridin-5-one] was run?
The pIC50 was < 6.00.

`CC(C)c1cc(Nc2ccc(N3CCN(C)CC3)cn2)c2c(=O)[nH]ccc2n1` [I-57, 2-isopropyl-4-[[5-(4-methyl-piperazin-1-yl)-2-pyridyl]amino]-6H-1,6-naphthyridin-5-one] was tested. Which pIC50 did it give?
The pIC50 was ≥ 7.00.

With `CCNC(=O)C(C)(C)c1ccc(Nc2cc(-c3cc(C(C)C)ccc3F)nc3cc[nH]c(=O)c23)nc1` [I-128, N-ethyl-2-[6-[[2-(2-fluoro-5-isopropyl-phenyl)-5-oxo-6H-1,6-naphthyridin-4-yl]amino]-3-pyridyl]-2-methyl-propanamide] as the compound, how does the pIC50 read?
The pIC50 was 6.00 to 7.00.

`COc1cc(-c2cc(Nc3ccc(N4CC(F)(F)C4)cn3)c3c(=O)[nH]ccc3n2)c(F)cc1C(=O)N1CCCCC1` [I-174, 4-[[5-(3,3-difluoro-azetidin-1-yl)-2-pyridyl]amino]-2-[2-fluoro-5-methoxy-4-(piperidine-1-carbonyl)phenyl]-6H-1,6-naphthyridin-5-one] was tested. Which pIC50 did it give?
Its pIC50 is < 6.00.

How did the pIC50 turn out when `O=c1[nH]ccc2nc(C3CCCCC3)cc(Nc3ccc(N4CCC(O)CC4)cn3)c12` [I-19, 2-cyclohexyl-4-[[5-(4-hydroxy-1-piperidyl)-2-pyridyl]amino]-6H-1,6-naphthyridin-5-one] was run?
The pIC50 was 6.00 to 7.00.

With `CN(C(=O)C1(C)CC1)c1ccc(-c2cc(Nc3ccc(N4CCC(O)CC4)cn3)c3c(=O)[nH]ccc3n2)c(F)c1` [I-214, N-[3-fluoro-4-[4-[[5-(4-hydroxy-1-piperidyl)-2-pyridyl]amino]-5-oxo-6H-1,6-naphthyridin-2-yl]phenyl]-N,1-dimethyl-cyclopropane-carboxamide] as the compound, how does the pIC50 read?
The pIC50 was 6.00 to 7.00.

`O=c1[nH]ccc2nc(C3CCNCC3)cc(Nc3ccc(N4CCC(O)CC4)cn3)c12` [I-34, 4-[[5-(4-hydroxy-1-piperidyl)-2-pyridyl]amino]-2-(4-piperidyl)-6H-1,6-naphthyridin-5-one] was tested. Which pIC50 did it give?
Its pIC50 is 6.00 to 7.00.

How did the pIC50 turn out when `CC(C)c1ccc(F)c(-c2cc(Nc3ccc(N4[C@H](C)COC[C@H]4C)cn3)c3c(=O)[nH]ccc3n2)c1` [I-122, 4-[[5-[(3R,5R)-3,5-dimethyl-morpholin-4-yl]-2-pyridyl]amino]-2-(2-fluoro-5-isopropyl-phenyl)-6H-1,6-naphthyridin-5-one] was run?
Its pIC50 is 6.00 to 7.00.

`COc1cc(F)c(-c2cc(Nc3ccc(N4CCC(O)CC4)cn3)c3c(=O)[nH]ccc3n2)cc1CN1CCCCC1` [I-202, 2-[2-fluoro-4-methoxy-5-(1-piperidyl-methyl)phenyl]-4-[[5-(4-hydroxy-1-piperidyl)-1-2-pyridyl]amino]-6H-1,6-naphthyridin 5-one] was tested. Which pIC50 did it give?
The pIC50 was ≥ 7.00.

With `CCOc1ccc(F)c(-c2cc(Nc3ccc(N4CCC(O)CC4)cn3)c3c(=O)[nH]ccc3n2)c1` [I-66, 2-(5-ethoxy-2-fluoro-phenyl)-4-[[5-(4-hydroxy-1-piperidyl)-2-pyridyl]amino]-6H-1,6-naphthyridin-5-one] as the compound, how does the pIC50 read?
Its pIC50 is 6.00 to 7.00.

How did the pIC50 turn out when `CC(C)c1cc(Nc2ccc(N3CCNCC3)cn2)c2c(=O)[nH]ccc2n1` [I-21, 2-isopropyl-4-[(5-piperazin-1-yl-2-pyridyl)amino]-6H-1,6-naphthyridin-5-one] was run?
Its pIC50 is 6.00 to 7.00.

How did the pIC50 turn out when `O=C(Nc1ccc(-c2cc(Nc3ccc(N4CCC(O)CC4)cn3)c3c(=O)[nH]ccc3n2)c(F)c1)C1CC1` [I-58, N-[3-fluoro-4-[4-[[5-(4-hydroxy-1-piperidyl)-2-pyridyl]amino]-5-oxo-6H-1,6-naphthyridin-2-yl]phenyl] cyclopropane-carboxamide] was run?
The pIC50 was ≥ 7.00.

With `O=c1[nH]ccc2nc(-c3cc4c(cc3F)CCC4O)cc(Nc3ccc(N4CCC(O)CC4)cn3)c12` (centres unmarked) [I-192, 2-(6-fluoro-3-hydroxy-indan-5-yl)-4-[[5-(4-hydroxy-1-piperidyl)-2-pyridyl]amino]-6H-1,6-naphthyridin-5-one] as the compound, how does the pIC50 read?
The pIC50 was 6.00 to 7.00.

With `O=C(Nc1ccc(-c2cc(Nc3ccc(N4C[C@H]5CC[C@@H](C4)O5)cn3)c3c(=O)[nH]ccc3n2)c(F)c1)C1CCCCC1` [I-173, N-[3-fluoro-4-[4-[[5-[(1R,5S)-8-oxa-3-azabicyclo [3.2.1]octan-3-yl]-2-pyridyl]amino]-5-oxo-6H-1,6-naphthyridin-2-yl]phenyl]-cyclohexane-carboxamide] as the compound, how does the pIC50 read?
Its pIC50 is 6.00 to 7.00.

With `Cn1ccnc1N1CCN(c2cc(Nc3ccc(N4CCC(O)CC4)cn3)c3c(=O)[nH]ccc3n2)CC1` [I-271, 4-[[5-(4-hydroxy-1-piperidyl)-2-pyridyl]amino]-2-[4-(1-methyl-imidazol-2-yl)piperazin-1-yl]-6H-1,6-naphthyridin-5-one] as the compound, how does the pIC50 read?
Its pIC50 is ≥ 7.00.
